{"source": "patent US20250092058A1", "about": "(priority 2018, published 2025)", "tested_on": "CRC PDX27454 tumors", "conditions": "spray-dried FL118-HPβCD powder in saline with 5% PG, p.o. weekly ×4, half MTD", "description": "Colorectal cancer (CRC) patient-derived xenograft (PDX) models were used to evaluate their in vivo antitumor activity. […] Treatments were administered weekly for four weeks on days 0, 7, 14 and 21 and tumor volumes and individual body weights were monitored.\nHuman xenograft tumors used. In this invention disclose, human SW620 (colorectal), HT29 (colorectal) and HT-3 (retinoblastoma) cancer cell line-established xenograft tumors were used. Human tumor cell line-derived xenograft tumors are initially established by subcutaneously injecting 2-5×10^6 cultured cancer cells in a volume of 100-150 p L medium into the flank area of severe combined immunodeficiency (SCID) mice. The derived tumors are then passed a couple of generations in mice by transplanting 30-50 mg non-necrotic tumor mass via a trocar for experiments or maintenance. […] PDX tumors were originally established on severe Combined Immunodeficiency (SCID) mice from pancreatic and colorectal cancer patient tumor tissues obtained from metastatic sites of the disease in the clinic.\nSpecifically, PDX tumors were originally established on severe Combined Immunodeficiency (SCID) mice from pancreatic and colorectal cancer patient tumor tissues obtained from metastatic sites of the disease in the clinic. […] The vehicle is the same think aqueous suspension without drug. Experimental SCID mice were subcutaneously implanted with 30-40 mg individual PDX tumors (isolated from maintenance mice) at the flank area for PDX27454 of SCID mice. Treatment with vehicle or a drug of 7Q-series (2) was initiated 7-14 days after the transplanted tumors reached 100-200 mm^3 (designated day 0). The animal model of PDX tumors was orally treated weekly for 4 times (one cycle/course, as shown with black arrows) or only one time drug administration."}
{"molecule": "CC[C@@]1(O)C(=O)OCc2c1cc1n(c2=O)Cc2cc3cc4c(cc3nc2-1)OCO4", "note": "[FL118, 10,11-methylenedioxy-camptothecin]", "values": [{"measurement": "antitumor activity", "result": "great antitumor activity"}, {"measurement": "toxicity (mouse body weight changes)", "result": "no toxicity at all"}]}
